{"source": "patent US20130197043A1", "about": "“USE OF THE FETAL REPROGRAMMING OF A PPAR AGONIST” (SNU R&DB FOUNDATION, priority 2010, published 2013)", "key": {"[1]": {"test_system": "gene expression in muscle", "experiment": "Gene expression analysis using real-time PCR in fetal-reprogrammed mice", "format": "in vivo", "experimental": "A gene expression analysis experiment using the real-time PCR was conducted to further verify Miroarray analysis results. As for mouse group subjected to fetal reprogramming by administration of PPAR δ agonist (CMDD1111) during a muscular development period, there were increases in expression of core regulators for fatty acid oxidation and thermogenesis, such as carnitine palmitoyl transferase 1a (CPT-1a: 1.5 fold), uncoupling protein 3 (UCP3: 4.2 fold), acyl Co-A synthetase (ACSL: 1.4 fold), acyl Co-A dehydrogenase (ACAD10: 2.0 fold), and NDUFA12 (1.3 fold). In addition, there was a remarkable increase in expression of Adiponectin (ADIPOQ: 2.5 fold), which are commonly expressed in the slow muscle fiber and has been known to increase fatty acid oxidation to improve diabetes (FIG. 9)."}, "[2]": {"test_system": "gene expression in gastrocnemius muscle", "experiment": "Gene expression analysis using microarray", "format": "in vivo, mice", "source_text": "As for an animal, the gastrocnemius muscle of 3-week old mice fetal-reprogrammed by PPAR δ agonist (CMDD1111) was resected, and then total RNA was extracted by using the Trizol reagent (Gibco). The isolated RNA was subjected to quantitative and purity verification processes, and then used for gene expression analysis using a Mouse 430 2.0 (Affimatrix) chip."}, "[3]": {"test_system": "mice subjected to fetal reprogramming", "experiment": "Respiratory exchange ratio (RER) measurement using Oximax", "format": "in vivo", "experimental": "RER is a ratio of the amount of CO2 exhaled to O2 inhaled in one breath. The RER is 1.0 when carbohydrate is mainly used for energy production, while the RER is 0.7 when fat is used. […] The RER experiment using Oximax (Columbus) was conducted in order to evaluate whether or not this increase in slow muscle fiber generation actually influenced mouse energy metabolism. […] Since the RER has a periodic value depending on the time, the RER difference between the two groups was more clearly compared by using AUL, in order to check the RER difference between the two groups. The average AUL value of the control group was 107.4±1.4. Whereas, the average AUL value of the mouse group subjected to fetal reprogramming was 102.2±2.8, which was lower than that of the mouse control group (FIG. 17).\nThe present inventors checked a difference in lipid oxidation capacity between the two groups by using the following equations.\nCarbohydrate oxidation=(4.51·RER−3.18)·VO2\nLipid oxidation=1.67·(1−RER)·VO2\nAs the calculation result, it may be seen that the mouse group to which PPAR δ agonist (CMDD1111) was administered during the fetal programming period used more lipid by average 44% (6.6 mg/kgmin vs. 9.5 mg/kgmin) but less carbohydrate by 20% (48 mg/kgmin vs. 38 mg/kgmin), as compared with the control group to which vehicle was administered. Therefore, it may be seen that the mice in which PPAR δ was activated during the fetal programming period had increased slow muscle fiber generation and thus increased the lipometabolism."}, "[4]": {"experiment": "Pharmacokinetic experiment: passage of PPAR δ agonist through the placenta", "format": "in vivo, mice", "experimental": "Pharmacokinetic experiment was conducted in order to confirm whether or not a PPAR δ agonist used in the present study, CMDD1111, passes through the placenta. CMDD 1111 was administered to 16-day pregnant mice at a concentration of 10 mg/kg, and then concentrations of the compound distributed in the bloods of mother animals and fetuses were analyzed for 24 hours. […] In the case of the fetuses, the blood concentration thereof tended to increase with the time, unlike the mother animals, and the maximum blood concentration thereof was 8.9 μM."}, "[5]": {"test_system": "leptin receptor-deficient mouse (db/db)", "experiment": "Glucose tolerance test in type II diabetes mouse model after fetal reprogramming", "format": "in vivo", "conditions": "homo type male db/db fetuses; mother dosed only during lactation", "experimental": "The present researchers have checked the fetal reprogramming effect of PPAR δ by using a leptin receptor-deficient mouse (db/db). After hetero type female and male mice were bred, the PPAR δ agonist (CMDD1111) was administered to the female mice only during the lactation period. The glucose tolerance test (GTT) was conducted using only homo type male fetuses having induced diabetes through gene analysis and blood glucose analysis."}, "primary cultured myotube": {"test_system": "primary cultured myotube", "experiment": "Primary cell culture and real-time PCR gene expression analysis", "format": "cell-based, mouse", "conditions": "300 nM, real-time PCR", "experimental": "However, it has not been reported that the PPARs response element (PPRE) is present at promoters of these three genes. Therefore, the present inventors resected the muscle of the mouse with the removal of PPAR δ gene and conducted primary culture, in order to verify whether or not the increases in expressions of the above three genes are PPAR δ-dependent. After hind legs of a five-day-old fetus was resected, primary culture was conducted by the same method as developed by Rando (Rando et al, J. Cell. Biol., 1994, 125, 1275-1287). Myoblast, after being cultured, was transferred to a 6-well plate, and then differentiated into myotube while being treated with 300 nM of PPAR δ agonist (CMDD1111). The differentiated myotube was further treated with 300 nM of PPAR δ agonist (CMDD1111) for 2 days, and then total RNA was extracted by using a TRIzol reagent (Gibco). The extracted RNA was subjected to reverse transcription, to synthesize cDNA, which was then used as a template for real-time PCR analysis."}, "[6]": {"conditions": "fetal-reprogrammed mouse muscle"}, "[7]": {"conditions": "microarray, gastrocnemius muscle, 3-week old mice"}}, "data": [{"smiles": "Cc1cc(SC(Cc2ccccc2)c2sc(-c3ccc(C(F)(F)F)cc3)nc2C)ccc1OCC(=O)O", "note": "(stereo not drawn) [CMDD1111]", "values": [{"measurement": "expression of Adiponectin (ADIPOQ)", "setting": "[1]; [6]", "value": 2.5, "unit": "fold"}, {"measurement": "expression of CaMKII B", "setting": "[1]; [6]", "value": 4.5, "unit": "fold"}, {"measurement": "expression of CaMKII D", "setting": "[1]; [6]", "value": 3.2, "unit": "fold"}, {"measurement": "expression of HDAC4, decreased by", "setting": "[1]; [6]", "value": 0.6, "unit": "fold"}, {"measurement": "expression of NDUFA12", "setting": "[1]; [6]", "value": 1.3, "unit": "fold"}, {"measurement": "expression of PGC-1α", "setting": "[1]; [6]", "value": 1.6, "unit": "fold"}, {"measurement": "expression of acyl Co-A dehydrogenase (ACAD10)", "setting": "[1]; [6]", "value": 2.0, "unit": "fold"}, {"measurement": "expression of acyl Co-A synthetase (ACSL)", "setting": "[1]; [6]", "value": 1.4, "unit": "fold"}, {"measurement": "expression of carnitine palmitoyl transferase 1a (CPT-1a)", "setting": "[1]; [6]", "value": 1.5, "unit": "fold"}, {"measurement": "expression of uncoupling protein 3 (UCP3)", "setting": "[1]; [6]", "value": 4.2, "unit": "fold"}, {"measurement": "expression of ATP2A2", "setting": "[1]; versus control group", "value": 2.2, "unit": "fold"}, {"measurement": "expression of MYH6", "setting": "[1]; versus control group", "value": 6.8, "unit": "fold"}, {"measurement": "expression of My17", "setting": "[1]; versus control group", "value": 4.8, "unit": "fold"}, {"measurement": "expression of RYR2", "setting": "[1]; versus control group", "value": 2.2, "unit": "fold"}, {"measurement": "expression of RYR3", "setting": "[1]; versus control group", "value": 3.6, "unit": "fold"}, {"measurement": "expression of TNNI3", "setting": "[1]; versus control group", "value": 5.8, "unit": "fold"}, {"measurement": "expression of phospholamban", "setting": "[1]; versus control group", "value": 3.2, "unit": "fold"}, {"measurement": "expressions of genes commonly expressed in the heart muscle (RYR2, ATP2A2, PLN)", "setting": "[2]; fetal-reprogrammed mouse group", "value": "remarkably increased"}, {"measurement": "expression of ATPase, Ca2+ transporting (SERCA)", "setting": "[2]; [7]", "value": 1.4, "unit": "fold"}, {"measurement": "expression of CamIIb", "setting": "[2]; [7]", "value": 1.4, "unit": "fold"}, {"measurement": "expression of CamIId", "setting": "[2]; [7]", "value": 1.8, "unit": "fold"}, {"measurement": "expression of HDAC4 (decrease)", "setting": "[2]; [7]", "value": "−1.5", "unit": "fold"}, {"measurement": "expression of Mef2a", "setting": "[2]; [7]", "value": 1.4, "unit": "fold"}, {"measurement": "expression of PPARγ coactivator 1a", "setting": "[2]; [7]", "value": 1.7, "unit": "folds"}, {"measurement": "expression of Troponin I", "setting": "[2]; [7]", "value": 3.2, "unit": "fold"}, {"measurement": "expression of Troponin T2", "setting": "[2]; [7]", "value": 2.3, "unit": "fold"}, {"measurement": "expression of acyl CoA dehydrogenase (ACAD)", "setting": "[2]; [7]", "value": 1.7, "unit": "fold"}, {"measurement": "expression of acyl CoA synthetase (ACSL)", "setting": "[2]; [7]", "value": 1.5, "unit": "fold"}, {"measurement": "expression of carnitine palmitoyl transferase 1a (CPT-1a)", "setting": "[2]; [7]", "value": 1.4, "unit": "fold"}, {"measurement": "expression of cytochrome 8a (COX8A)", "setting": "[2]; [7]", "value": 1.7, "unit": "fold"}, {"measurement": "expression of myosin binding protein C3 (MYBPC3)", "setting": "[2]; [7]", "value": 2.8, "unit": "fold"}, {"measurement": "expression of myosin heavy chain 6 (Myh6)", "setting": "[2]; [7]", "value": 2.7, "unit": "fold"}, {"measurement": "expression of myosin light chain 7 (Myl7)", "setting": "[2]; [7]", "value": 2.9, "unit": "fold"}, {"measurement": "expression of pantothenate kinase 1 (PANK1)", "setting": "[2]; [7]", "value": 2.4, "unit": "fold"}, {"measurement": "expression of phospholamban (PLN)", "setting": "[2]; [7]", "value": 2.8, "unit": "fold"}, {"measurement": "expression of ryanodine receptor 2 (RYR2)", "setting": "[2]; [7]", "value": 2.8, "unit": "fold"}, {"measurement": "expression of ryanodine receptor 3 (RYR3)", "setting": "[2]; [7]", "value": 2.0, "unit": "fold"}, {"measurement": "expression of ubiquinone", "setting": "[2]; [7]", "value": 2.0, "unit": "fold"}, {"measurement": "expression of uncoupling protein 2 (UCP2)", "setting": "[2]; [7]", "value": 1.5, "unit": "fold"}, {"measurement": "expression of uncoupling protein 3 (UCP3)", "setting": "[2]; [7]", "value": 2.3, "unit": "fold"}, {"measurement": "carbohydrate oxidation", "setting": "[3]; calculated from RER and VO2", "value": 38, "unit": "mg/kgmin"}, {"measurement": "less carbohydrate used versus vehicle control", "setting": "[3]; calculated from RER and VO2", "value": 20, "unit": "%"}, {"measurement": "lipid oxidation", "setting": "[3]; calculated from RER and VO2", "value": 9.5, "unit": "mg/kgmin"}, {"measurement": "more lipid used versus vehicle control", "setting": "[3]; calculated from RER and VO2", "value": 44, "unit": "%"}, {"measurement": "average AUL value of RER", "setting": "[3]; mouse group subjected to fetal reprogramming", "value": "102.2±2.8"}, {"measurement": "passage through the placenta", "setting": "[4]; 16-day pregnant mice, 10 mg/kg", "value": "passed through the placenta"}, {"measurement": "half-life", "setting": "[4]; female, mouse, blood, oral, mother animals, 16-day pregnant mice, 10 mg/kg, read-out: half-time (t1/2) (converted)", "value": 9, "unit": "h"}, {"measurement": "Cmax", "setting": "[4]; female, mouse, blood, oral, mother animals, 16-day pregnant mice, 10 mg/kg, read-out: maximum blood concentration (Cmax)", "value": 38, "unit": "µM"}, {"measurement": "Tmax", "setting": "[4]; female, mouse, blood, oral, mother animals, 16-day pregnant mice, 10 mg/kg, read-out: time for reaching the maximum blood concentration (Tmax)", "value": 1, "unit": "h"}, {"measurement": "maximum blood concentration", "setting": "[4]; fetuses, mother given 10 mg/kg, 24 hours", "value": 8.9, "unit": "µM"}, {"measurement": "glucose tolerance (GTT)", "setting": "[5]", "value": "improved"}, {"measurement": "expression of ATP2A2", "setting": "primary cultured myotube", "value": 4.3, "unit": "fold"}, {"measurement": "expression of CPT-1", "setting": "primary cultured myotube", "value": 1.5, "unit": "fold"}, {"measurement": "expression of PDK4", "setting": "primary cultured myotube", "value": 2.2, "unit": "fold"}, {"measurement": "expression of PLN", "setting": "primary cultured myotube", "value": 1.7, "unit": "fold"}, {"measurement": "expression of RYR", "setting": "primary cultured myotube", "value": 2.2, "unit": "fold"}, {"measurement": "expression of TNNI3", "setting": "primary cultured myotube", "value": 1.7, "unit": "fold"}]}]}
